Test results taken from patent publication US9012674B1, “Ethyl (2R)-2-acetamido-3-(4-methylbenzoylsulfanyl)propanoate and uses thereof” (Promentis Pharmaceuticals, Inc., priority 2013, dated 2015).

Legend:
[1] = system: human glial cells from brain astrocytoma (1321N1); assay: 3H-glutamate release in human astrocytoma cell culture; assay type: cell-based; conditions: 300 μM (most effective concentration); at 3 hours; versus untreated control
Procedure: This assay also uses the cell culture system of human glial cells from brain astrocytoma (1321N1) described above. Initially, cells are washed with HBBSS, and ^3H-glutamate is added (PerkinElmer: 1 mCi/mL stock solution is diluted (30 μL+500 μL HBBSS) and 10 μL of diluted radiolabel is added to each well). Following a 1 hour incubation to load the cells with the labeled glutamate, the cells are washed again with HBBSS, and the drug is added. At 30, 90, and 180 minutes, 50 μL of extracellular media is sampled from each well and is measured using a Beckman LS 6500 scintillation counter.
Results of the ^14C-cystine uptake and ^3H-glutamate release by astrocytes treated with differing concentrations of Pro-4051, are presented in FIG. 1, as a percentage of the untreated control. […] This graph represents an average of three experiments run.

[2] = Solubility data; assay type: physicochemical; conditions: according to solubility data; read-out: concentration above which compound is not in solution (solubility)
[3] = system: human glial cells from brain astrocytoma (1321N1); assay: 14C-cystine uptake in human astrocytoma cell culture; assay type: cell-based; conditions: 100 μM (most effective concentration); three hour incubation; versus untreated control; average of three experiments
Procedure: The goal of these experiments was to determine ^14C-cystine uptake. The experiments were conducted as follows.
The screening of the compound was performed using an in vitro culture system of human glial cells from brain astrocytoma (1321N1). Cells were plated on 24 well plates coated with poly-D-lysine and laminin and grown in a balanced salt solution supplemented with 5% heat inactivated horse serum, 5% fetal bovine serum, 2 mM glutamine and glucose (total 21 mM). Cultures were maintained in humidified 5% CO2 incubators at 37° C. for 3-4 days before experiments were performed, at this time the cultures has formed a single confluent layer. For experiments, cultures were washed 3 times into a Na-free HEPES and HCO3^− buffered balanced salt solution. After 1 hour the test compounds are added. Following a three hour incubation, ^14C-cystine (0.025 mCi/mL) was then added for 20 minutes. Following the ^14C-cystine exposure, cultures were washed 3 times with ice cold HEPES buffered saline solution and dissolved in 250 μl sodium dodecyl sulfate (0.1%). An aliquot (200 μl) was removed and added to scintillation fluid for counting. Values were normalized to ^14C-cystine uptake in untreated controls on the same experimental plate. […]

CCOC(=O)[C@H](CSC(=O)c1ccc(C)cc1)NC(C)=O [Pro-4051, ethyl (2R)-2-acetamido-3-(4-methylbenzoylsulfanyl)propanoate]
increase in 3H-glutamate release [1]: approximately 100% | solubility [2]: ≤ 316 µM | decrease in 14C-cystine uptake [3]: approximately 28%
